Reference: patent US20210002231A1 (Centre National de la Recherche Scientifique, priority 2018, published 2021)
Starred links: 1 amine or outer side, 2 acyl side, 3 side chain; linkers in the order of their positions; H or OH if unused. Non-standard residues stand in square brackets, D forms with d. Residues, ends and D or L forms follow the SMILES beside them. *: point of attachment. Nva(5-(4-Bn-piperidin-1-yl)) = N[C@@H](CCCN1CCC(Cc2ccccc2)CC1)C(=O)O; X5 = O=C1[C@@H](N[*:1])Cc2ccccc2CN1CCCC(=O)[*:2]; X1 = O=C1[C@@H](N[*:1])Cc2ccccc2CN1CCC(=O)[*:2]; Tic(7-OH) = O=C(O)[C@@H]1Cc2ccc(O)cc2CN1; Dmt = Cc1cc(O)cc(C)c1C[C@H](N)C(=O)O; d(hArg) = N=C(N)NCCCC[C@@H](N)C(=O)O; Nicotinoyl = O=C(c1cccnc1)*; dOrn = NCCC[C@@H](N)C(=O)O; dNMeA = CN[C@H](C)C(=O)O; Nlys = NCCCCNCC(=O)O; βAla = NCCC(=O)O

Experiments:
human MOPr [1] = molecular target: T1, human MOPr (Homo sapiens, UniProt P35372); assay: BRET1 β-arrestin-2 recruitment assay; type: cell-based; design: expressed in transfected cells; host or cells: HEK293 cells stably expressing eYFP-β-arrestin-2, transiently transfected with the Rluc8-MOP plasmid; details: for Emax: read-out: MOPr (β-arrestin-2) Emax; for β-arrestin-2 recruitment: in words;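 as to Emax: Emax relative to maximal DAMGO-induced BRET as 100%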;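 as to MOPr (β-arrestin-2) Emax: Emax relative to maximal DAMGO-induced BRET as 100%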
T1 sequence (P35372 whole entry): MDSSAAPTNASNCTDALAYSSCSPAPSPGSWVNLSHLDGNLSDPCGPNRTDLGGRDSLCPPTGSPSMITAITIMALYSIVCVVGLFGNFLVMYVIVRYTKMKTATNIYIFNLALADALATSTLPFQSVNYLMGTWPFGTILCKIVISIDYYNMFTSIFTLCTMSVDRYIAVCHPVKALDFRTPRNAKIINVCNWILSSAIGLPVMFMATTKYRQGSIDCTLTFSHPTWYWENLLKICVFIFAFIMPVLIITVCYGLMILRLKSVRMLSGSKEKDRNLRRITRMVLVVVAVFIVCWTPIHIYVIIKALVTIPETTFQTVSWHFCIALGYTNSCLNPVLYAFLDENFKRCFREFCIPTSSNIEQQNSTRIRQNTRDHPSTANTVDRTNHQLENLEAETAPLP
Description: Peak response amplitudes were normalized to basal and maximal (cells permeabilized with 20 μM digitonin) fluorescence levels. 1.8. β-Arrestin-2 recruitment assay The β-arrestin-2 recruitment assay was performed as described [34; 45] with minor modifications. Briefly, two days prior the experiment, HEK293 cells stably expressing eYFP-tagged β-arrestin-2 were transfected with the plasmid encoding Rluc8-MOP receptor. β-Arrestin-2 recruitment was measured at 37° C. in presence of 5 μM Coelenterazine H, 5 min after agonist addition.

human MOPr [2] = molecular target: T1, human MOPr; assay: cell-based; type: cell-based; design: expressed in transfected cells; HEK293-Glo20F cells (cAMP); details: for Emax: read-out: MOPr (cAMP) Emax; for MOPr-induced G protein activation: in words
Description: Stimulation by endogenous RF-amide peptides or test compounds for [^35S]-GTPγS binding to membranes from CHO cells expressing human NPFF1R or NPFF2R, were examined as reported. 1.6. Glo-Sensor cAMP Assay cAMP accumulation assay was essentially done as described with the following modifications: HEK293 cells stably expressing cAMP Glosensor-20F were used, with or without additional stable expression of each individual opioid receptor or NPFF1R. The cAMP responses were measured in presence of D-luciferin (1 mM).

[3] = Table 3B, read-out: MOPr (cAMP) EC50
[4] = Table 3B, — = non-detectable recruitment, read-out: MOPr (β-arrestin-2) EC50
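For MOPr (cAMP) Emax in this document: Emax relative to DAMGO as 100%.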

| SMILES | EC50 (human MOPr [1]) [nM] | Emax (human MOPr [1]) [%] | EC50 (human MOPr [2]; [3]) [nM] | Emax (human MOPr [2]) [%] | EC50 (human MOPr [1]; [4]) [nM] | β-arrestin-2 recruitment (human MOPr [1]) | MOPr-induced G protein activation (human MOPr [2]) | EC50 (human MOPr [2]; MOPr (cAMP) EC50, Table 3B) [nM] |
| --- | --- | --- | --- | --- | --- | --- | --- | --- |
| N=C(N)NCCC[C@@H](NC(=O)[C@@H]1Cc2ccc(O)cc2CN1)C(=O)N[C@H]1Cc2ccccc2CN(CCC(=O)N[C@@H](CCCN2CCC(Cc3ccccc3)CC2)C(=O)N[C@@H](Cc2ccccc2)C(N)=O)C1=O [DP0031, 7-OH-Tic-D-Arg-Aba-β-Ala-Bpa-Phe-NH2] (H-[Tic(7-OH)][dR][X1][Nva(5-(4-Bn-piperidin-1-yl))]F-NH2; N-terminus assumed) | > 500 | ~40 | 3600 | 46 |  |  |  |  |
| Cc1cc(O)cc(C)c1C[C@H](N)C(=O)N[C@H](CCCNC(=N)N)C(=O)N[C@@H](Cc1ccccc1)C(=O)N(C)CC(=O)N[C@@H](CCCN1CCC(Cc2ccccc2)CC1)C(=O)N[C@H](C(N)=O)C(C)C [DP0025, H-Dmt-D-Arg-Phe-N(Me)Gly-Bpa-Val-NH2] (HELM PEPTIDE1{[Cc1cc(O)cc(C)c1C[C@H](N)C(=O)[*:2]].[dR].F.[Sar].[O=C([C@H](CCCN1CCC(Cc2ccccc2)CC1)N[*:1])[*:2]].V.[am]}$$$$V2.0) |  | ~114 | 7.1 | 110 | ~50 |  |  |  |
| Cc1cc(O)cc(C)c1C[C@H](N)C(=O)N1CCC[C@@H]1C(=O)N[C@H]1Cc2ccccc2CN(CCC(=O)N[C@@H](CCCN2CCC(Cc3ccccc3)CC2)C(=O)N[C@@H](Cc2ccccc2)C(N)=O)C1=O [DP0008, H-Dmt-D-Pro-Aba-β-Ala-Bpa-Phe-NH2] (H-[Dmt][dP][X1][Nva(5-(4-Bn-piperidin-1-yl))]F-NH2) |  |  | 10.6 ± 1.3 | 53 ± 0.7 |  | non-detectable | significant |  |
| Cc1cc(O)cc(C)c1C[C@H](N)C(=O)N[C@H](CCCNC(=N)N)C(=O)N[C@H]1Cc2ccccc2CN(CCC(=O)N[C@H](CCCN2CCC(Cc3ccccc3)CC2)C(=O)N[C@@H](Cc2ccccc2)C(N)=O)C1=O [DP0027, H-Dmt-D-Arg-Aba-β-Ala-D-Bpa-Phe-NH2] |  | ~68 | 13.6 | 95 | ~180 |  |  |  |
| Cc1cc(O)cc(C)c1C[C@H](N)C(=O)N[C@H](CCCN1CCC(Cc2ccccc2)CC1)C(=O)N[C@H]1Cc2ccccc2CN(CCC(=O)N[C@@H](CCCN2CCC(Cc3ccccc3)CC2)C(=O)N[C@@H](Cc2ccccc2)C(N)=O)C1=O [DP0009, H-Dmt-D-Bpa-Aba-β-Ala-Bpa-Phe-NH2] |  |  | 800 | 35 |  |  |  |  |
| Cc1cc(O)cc(C)c1C[C@H](N)C(=O)N[C@H](CCCNC(=N)N)C(=O)N[C@H]1Cc2ccccc2CN(CCC(=O)N[C@@H](CCCN2CCc3ccccc3C2)C(=O)N[C@@H](Cc2ccccc2)C(N)=O)C1=O [DP0026, H-Dmt-D-Arg-Aba-β-Ala-THIQ-Phe-NH2] |  | ~50 | 2.4 | 98 |  |  |  |  |
| Cc1cc(O)cc(C)c1C[C@H](N)C(=O)N[C@H](CCCN)C(=O)N[C@H]1Cc2ccccc2CN(CCC(=O)N[C@@H](CCCN2CCC(Cc3ccccc3)CC2)C(=O)N[C@@H](Cc2ccccc2)C(N)=O)C1=O [DP0028, H-Dmt-D-Orn-Aba-β-Ala-Bpa-Phe-NH2] (H-[Dmt][dOrn][X1][Nva(5-(4-Bn-piperidin-1-yl))]F-NH2) |  |  | 40.4 | 75 |  | non-detectable | significant |  |
| Cc1cc(O)cc(C)c1C[C@H](NC(=N)N)C(=O)N[C@H](CCCNC(=N)N)C(=O)N[C@H]1Cc2ccccc2CN(CCC(=O)N[C@@H](CCCN2CCC(Cc3ccccc3)CC2)C(=O)N[C@@H](Cc2ccccc2)C(N)=O)C1=O [DP0032, Guanidyl-Dmt-D-Arg-Aba-β-Ala-Bpa-Phe-NH2] |  |  |  | 63 |  | non-detectable | significant | 12.6 |
| Cc1cc(O)cc(C)c1C[C@H](N)C(=O)N(C)[C@H](C)C(=O)N[C@H]1Cc2ccccc2CN(CCC(=O)N[C@@H](CCCN2CCC(Cc3ccccc3)CC2)C(=O)N[C@@H](Cc2ccccc2)C(N)=O)C1=O [DP0007, H-Dmt-N(Me)-D-Ala-Aba-β-Ala-Bpa-Phe-NH2] (H-[Dmt][dNMeA][X1][Nva(5-(4-Bn-piperidin-1-yl))]F-NH2) |  | 12 | 40 ± 20 | 64 ± 6 | 214 |  |  |  |
| Cc1cc(O)cc(C)c1C[C@H](N)C(=O)N[C@H](CCCCN)C(=O)N[C@H]1Cc2ccccc2CN(CCC(=O)N[C@@H](CCCN2CCC(Cc3ccccc3)CC2)C(=O)N[C@@H](Cc2ccccc2)C(N)=O)C1=O [DP0029, H-Dmt-D-Lys-Aba-β-Ala-Bpa-Phe-NH2] (H-[Dmt][dK][X1][Nva(5-(4-Bn-piperidin-1-yl))]F-NH2) |  |  | 25.7 | 72 |  | non-detectable | significant |  |
| Cc1cc(O)cc(C)c1C[C@H](N)C(=O)N[C@H](CCCNC(=N)N)C(=O)N[C@H]1Cc2ccccc2CN(CCC(=O)N[C@@H](CCCN2CCC(Cc3ccccc3)CC2)C(=O)N[C@@H](Cc2ccccc2)C(=O)NCCC(N)=O)C1=O [DP0016, H-Dmt-D-Arg-Aba-β-Ala-Bpa-Phe-β-Ala-NH2] (H-[Dmt][dR][X1][Nva(5-(4-Bn-piperidin-1-yl))]F[βAla]-NH2) |  | 31 | 19 | 95 | 399 |  |  |  |
| Cc1cc(O)cc(C)c1C[C@H](N)C(=O)N[C@H](CCCNC(=N)N)C(=O)N[C@H]1Cc2ccccc2CN(CCC(=O)N[C@@H](CCCN2CCC(Cc3ccccc3)CC2)C(=O)N[C@H](Cc2ccccc2)C(N)=O)C1=O [DP0015, H-Dmt-D-Arg-Aba-β-Ala-Bpa-D-Phe-NH2] |  | 59 | 5.9 ± 0.3 | 109 ± 0.4 | 80 |  |  |  |
| Cc1cc(O)cc(C)c1C[C@H](N)C(=O)N[C@H](CCCNC(=N)N)C(=O)N[C@@H](Cc1ccccc1)C(=O)N(C)CC(=O)N[C@@H](CCCN1CCC(Cc2ccccc2)CC1)C(=O)N[C@@H](Cc1ccccc1)C(N)=O [DP0024, H-Dmt-D-Arg-Phe-N(Me)Gly-Bpa-Phe-NH2] (HELM PEPTIDE1{[Cc1cc(O)cc(C)c1C[C@H](N)C(=O)[*:2]].[dR].F.[Sar].[O=C([C@H](CCCN1CCC(Cc2ccccc2)CC1)N[*:1])[*:2]].F.[am]}$$$$V2.0) |  | ~95 | 9.9 | 97 | ~50 |  |  |  |
| Cc1cc(O)cc(C)c1C[C@H](N)C(=O)N(CCCCN)CC(=O)N[C@H]1Cc2ccccc2CN(CCC(=O)N[C@@H](CCCN2CCC(Cc3ccccc3)CC2)C(=O)N[C@@H](Cc2ccccc2)C(N)=O)C1=O [DP0035, H-Dmt-Nlys-Aba-β-Ala-Bpa-Phe-NH2] (H-[Dmt][Nlys][X1][Nva(5-(4-Bn-piperidin-1-yl))]F-NH2) |  |  | 48.4 | 15 |  |  |  |  |
| Cc1cc(O)cc(C)c1C[C@H](N)C(=O)N[C@H](CCCCNC(=N)N)C(=O)N[C@H]1Cc2ccccc2CN(CCC(=O)N[C@@H](CCCN2CCC(Cc3ccccc3)CC2)C(=O)N[C@@H](Cc2ccccc2)C(N)=O)C1=O [DP0033, H-Dmt-D-hArg-Aba-β-Ala-Bpa-Phe-NH2] (H-[Dmt][d(hArg)][X1][Nva(5-(4-Bn-piperidin-1-yl))]F-NH2) |  |  | 24.9 | 41 |  | non-detectable | significant |  |
| Cc1cc(O)cc(C)c1C[C@H](N)C(=O)N[C@H](CCCCNC(=O)c1cccnc1)C(=O)N[C@H]1Cc2ccccc2CN(CCC(=O)N[C@@H](CCCN2CCC(Cc3ccccc3)CC2)C(=O)N[C@@H](Cc2ccccc2)C(N)=O)C1=O [DP0034, H-Dmt-D-Lys(Nic)-Aba-β-Ala-Bpa-Phe-NH2] (H-[Dmt][dK](Nicotinoyl)[X1][Nva(5-(4-Bn-piperidin-1-yl))]F-NH2) | 5 to 50 | ~18 | 3.9 | 92 |  |  |  |  |
| Cc1cc(O)cc(C)c1C[C@H](N)C(=O)N[C@H](CCCNC(=N)N)C(=O)N[C@@H](Cc1ccccc1)C(=O)N(C)[C@H](C)C(=O)N[C@@H](CCCN1CCC(Cc2ccccc2)CC1)C(=O)N[C@@H](Cc1ccccc1)C(N)=O [DP0030, H-Dmt-D-Arg-Phe-N(Me)-D-Ala-Bpa-Phe-NH2] (H-[Dmt][dR]F[dNMeA][Nva(5-(4-Bn-piperidin-1-yl))]F-NH2) |  | ~85 | 27.7 | 111 | ~150 |  |  |  |
| Cc1cc(O)cc(C)c1C[C@H](N)C(=O)N(C)[C@H](C)C(=O)N[C@H]1Cc2ccccc2CN(CCCC(=O)N[C@@H](CCCN2CCC(Cc3ccccc3)CC2)C(=O)N[C@@H](Cc2ccccc2)C(N)=O)C1=O [DP0017, H-Dmt-N(Me)-D-Ala-AbaGABA-Bpa-Phe-NH2] (H-[Dmt][dNMeA][X5][Nva(5-(4-Bn-piperidin-1-yl))]F-NH2) |  |  | 14.1 | 70 |  | non-detectable | significant |  |
| Cc1cc(O)cc(C)c1C[C@H](N)C(=O)N[C@H](CCCNC(=N)N)C(=O)N[C@H]1Cc2c(ccc3ccccc23)CN(CC(=O)N[C@@H](CCCN2CCC(Cc3ccccc3)CC2)C(=O)N[C@@H](Cc2c[nH]c3ccccc23)C(N)=O)C1=O [DP0023, H-Dmt-D-Arg-1AnaGly-Bpa-Trp-NH2] |  |  |  | 61 |  | non-detectable | significant | 9.1 |
